According to patent publication US20170000133A1, “BENZOXABOROLE FUNGICIDES” (SYNGENTA PARTICIPATIONS AG, priority 2013, published 2017):

How the values were obtained:
[1] = system: Pythium ultimum; assay: Pythium ultimum / liquid culture (seedling damping off); type: cell-based; settings: Globisporangium ultimum; 200 ppm; potato dextrose broth, 24° C., 2-3 days after application; read-out: disease control (inhibition of growth determined photometrically)
[2] = system: Mycosphaerella arachidis (Cercospora arachidicola); assay: Mycosphaerella arachidis (Cercospora arachidicola) / liquid culture (early leaf spot); type: cell-based; settings: PDB potato dextrose broth, 24° C., 4-5 days after application, read-out: disease control (inhibition of growth determined photometrically)
Procedure: (§1) 12. Mycosphaerella arachidis (Cercospora arachidicola)/Liquid Culture (Early Leaf Spot): Conidia of the fungus from cryogenic storage were directly mixed into nutrient broth (PDB potato dextrose broth). After placing a DMSO solution of test compound into a 96-well microtiter plate at an application rate of 200 ppm, the nutrient broth containing the fungal spores was added. The test plates were incubated at 24° C. and the inhibition of growth was determined photometrically 4-5 days after application.

[3] = system: Glomerella lagenarium (Colletotrichum lagenarium); assay: Glomerella lagenarium (Colletotrichum lagenarium) / liquid culture (anthracnose); type: cell-based; settings: Colletotrichum orbiculare, PDB potato dextrose broth, 24° C., 3-4 days after application, read-out: disease control (inhibition of growth measured photometrically)
Procedure: as §1, with “11. Glomerella lagenarium (Colletotrichum lagenarium)/Liquid” for “12. Mycosphaerella arachidis (Cercospora arachidicola)/Liquid”, “(Anthracnose):” for “(Early Leaf Spot):”, “measured” for “determined”, “3-4” for “4-5”

[4] = system: Monographella nivalis (Microdochium nivale); assay: Monographella nivalis (Microdochium nivale) / liquid culture (foot rot cereals); type: cell-based; settings: PDB potato dextrose broth, 24° C., 4-5 days after application, read-out: disease control (inhibition of growth determined photometrically)
[5] = system: Gaeumannomyces graminis; assay: Gaeumannomyces graminis / liquid culture (take-all of cereals); type: cell-based; settings: PDB potato dextrose broth, 24° C., 4-5 days after application, read-out: disease control (inhibition of growth determined photometrically)
Procedure: 14. Gaeumannomyces graminis/Liquid Culture (Take-all of Cereals): Mycelial fragments of the fungus from cryogenic storage were directly mixed into nutrient broth (PDB potato dextrose broth). After placing a DMSO solution of test compound into a 96-well microtiter plate at an application rate of 200 ppm, the nutrient broth […], containing the fungal spores is added. The test plates were incubated at 24° C. and the inhibition of growth was determined photometrically 4-5 days after application.

[6] = system: Thanatephorus cucumeris (Rhizoctonia solani); assay: Thanatephorus cucumeris (Rhizoctonia solani) / liquid culture (foot rot, damping-off); type: cell-based; settings: PDB potato dextrose broth, 24° C., 3-4 days after application, read-out: disease control (inhibition of growth determined photometrically)
Procedure: 17. Thanatephorus cucumeris (Rhizoctonia solani)/Liquid Culture (Foot Rot, Damping-Off): Mycelia fragments of a newly grown liquid culture of the fungus were directly mixed into nutrient broth (PDB potato dextrose broth). After placing a DMSO solution of the test compounds into a 96-well microtiter plate at an application rate of 200 ppm, the nutrient broth containing the fungal material was added. The test plates were incubated at 24° C. and the inhibition of growth was determined photometrically 3-4 days after application.

[7] = system: Plasmopara viticola; assay: whole plant or invertebrate; type: in vivo; settings: foliar, read-out: disease control
[8] = system: Mycosphaerella graminicola (Septoria tritici); assay: Mycosphaerella graminicola (Septoria tritici) / liquid culture (Septoria blotch); type: cell-based; settings: Zymoseptoria tritici, PDB potato dextrose broth, 24° C., 4-5 days after application, read-out: disease control (inhibition of growth determined photometrically)
Procedure: as §1, with “13.” for “12.”, “graminicola (Septoria tritici)/Liquid” for “arachidis (Cercospora arachidicola)/Liquid”, “(Septoria Blotch):” for “(Early Leaf Spot):”

O=C(NCc1ccccc1)c1cc2c(cc1F)COB2O [Compound 104]
≥ 80%: inhibition at 200 ppm [1] | inhibition at 200 ppm [2]

Cc1ccccc1NC(=O)c1cc2c(cc1Cl)COB2O [Compound 112]
≥ 80%: inhibition at 200 ppm [3]

CC(=O)c1sc(NC(=O)c2cc3c(cc2Cl)COB3O)nc1C [Compound 158]
≥ 80%: inhibition at 200 ppm [1] | inhibition at 200 ppm [3]

O=C(OC(CF)CF)c1cc2c(cc1Cl)COB2O [Compound 189]
≥ 80%: inhibition at 200 ppm [1] | inhibition at 200 ppm [4] | inhibition at 200 ppm [3] | inhibition at 200 ppm [5]

CC(F)COC(=O)c1cc2c(cc1Cl)COB2O (centres unmarked) [Compound 209]
≥ 80%: inhibition at 200 ppm [1] | inhibition at 200 ppm [4] | inhibition at 200 ppm [6] | inhibition at 200 ppm [3] | inhibition at 200 ppm [5]

O=C(OCc1ncc(C(F)(F)F)cc1Cl)c1cc2c(cc1Cl)COB2O [Compound 221]
≥ 80%: inhibition at 200 ppm [1] | inhibition at 200 ppm [4] | inhibition at 200 ppm [3] | inhibition at 200 ppm [5]

COC(=O)C(OC(=O)c1cc2c(cc1Cl)COB2O)c1ccccc1 (centres unmarked) [Compound 223]
≥ 80%: inhibition at 200 ppm [1] | inhibition at 200 ppm [4] | pest or weed control at 200 ppm [7] | inhibition at 200 ppm [3]

COCCOC(=O)c1cc2c(cc1Cl)COB2O [Compound 224]
≥ 80%: inhibition at 200 ppm [1] | inhibition at 200 ppm [4] | inhibition at 200 ppm [3] | inhibition at 200 ppm [5]

O=C(OC1CCOCC1)c1cc2c(cc1Cl)COB2O [Compound 237]
≥ 80%: inhibition at 200 ppm [1] | inhibition at 200 ppm [4] | inhibition at 200 ppm [3]

O=C(NCc1ccccc1)c1ccc2c(c1)B(O)OC2 [Compound 261]
≥ 80%: inhibition at 200 ppm [1] | pest or weed control at 200 ppm [7] | inhibition at 200 ppm [2]

O=C(NCCOc1ccccc1)c1ccc2c(c1)B(O)OC2 [Compound 267]
≥ 80%: inhibition at 200 ppm [1] | inhibition at 200 ppm [2]

COc1ccc(CNC(=O)c2ccc3c(c2)B(O)OC3)cc1 [Compound 271]
≥ 80%: inhibition at 200 ppm [1] | pest or weed control at 200 ppm [7] | inhibition at 200 ppm [2]

Cc1ccccc1NC(=O)c1ccc2c(c1)B(O)OC2 [Compound 280]
≥ 80%: inhibition at 200 ppm [1] | inhibition at 200 ppm [3]

Cc1csc(NC(=O)c2ccc3c(c2)B(O)OC3)n1 [Compound 298]
≥ 80%: inhibition at 200 ppm [1] | pest or weed control at 200 ppm [7] | inhibition at 200 ppm [2]

CC(=O)c1sc(NC(=O)c2ccc3c(c2)B(O)OC3)nc1C [Compound 302]
≥ 80%: inhibition at 200 ppm [1] | inhibition at 200 ppm [2]

O=C(OC(CF)CF)c1ccc2c(c1)B(O)OC2 [Compound 311]
≥ 80%: inhibition at 200 ppm [1] | inhibition at 200 ppm [4] | inhibition at 200 ppm [6] | pest or weed control at 200 ppm [7] | inhibition at 200 ppm [2]

O=C(OCC1CCSCC1)c1ccc2c(c1)B(O)OC2 [Compound 319]
≥ 80%: inhibition at 200 ppm [1] | inhibition at 200 ppm [4] | inhibition at 200 ppm [6] | inhibition at 200 ppm [2] | inhibition at 200 ppm [8]

CCCCSCCOC(=O)c1ccc2c(c1)B(O)OC2 [Compound 324]
≥ 80%: inhibition at 200 ppm [1] | inhibition at 200 ppm [4] | inhibition at 200 ppm [6] | pest or weed control at 200 ppm [7] | inhibition at 200 ppm [5] | inhibition at 200 ppm [2] | inhibition at 200 ppm [8]

O=C(OCc1ccc(C(F)(F)F)cc1Cl)c1ccc2c(c1)B(O)OC2 [Compound 326]
≥ 80%: inhibition at 200 ppm [4] | inhibition at 200 ppm [3] | inhibition at 200 ppm [5]

C#CC(CC)OC(=O)c1ccc2c(c1)B(O)OC2 (centres unmarked) [Compound 327]
≥ 80%: inhibition at 200 ppm [1] | inhibition at 200 ppm [6] | pest or weed control at 200 ppm [7] | inhibition at 200 ppm [3] | inhibition at 200 ppm [5]

O=C(OCCCF)c1ccc2c(c1)B(O)OC2 [Compound 330]
≥ 80%: inhibition at 200 ppm [1] | inhibition at 200 ppm [4] | inhibition at 200 ppm [6] | pest or weed control at 200 ppm [7] | inhibition at 200 ppm [5] | inhibition at 200 ppm [2]

O=C(OCc1cccc2ccccc12)c1ccc2c(c1)B(O)OC2 [Compound 333]
≥ 80%: inhibition at 200 ppm [1] | inhibition at 200 ppm [4] | inhibition at 200 ppm [2] | inhibition at 200 ppm [8]

O=C(OCC1CCCO1)c1ccc2c(c1)B(O)OC2 (centres unmarked) [Compound 337]
≥ 80%: inhibition at 200 ppm [1] | inhibition at 200 ppm [4] | inhibition at 200 ppm [6] | pest or weed control at 200 ppm [7] | inhibition at 200 ppm [2]

C[Si](C)(C)/C=C/COC(=O)c1ccc2c(c1)B(O)OC2 [Compound 342]
≥ 80%: inhibition at 200 ppm [1] | inhibition at 200 ppm [4] | inhibition at 200 ppm [6] | pest or weed control at 200 ppm [7] | inhibition at 200 ppm [5] | inhibition at 200 ppm [2] | inhibition at 200 ppm [8]

O=C(OCc1ncc(C(F)(F)F)cc1Cl)c1ccc2c(c1)B(O)OC2 [Compound 347]
≥ 80%: inhibition at 200 ppm [1] | inhibition at 200 ppm [5] | inhibition at 200 ppm [2]

COCCOC(=O)c1ccc2c(c1)B(O)OC2 [Compound 350]
≥ 80%: inhibition at 200 ppm [1] | inhibition at 200 ppm [4] | inhibition at 200 ppm [6] | inhibition at 200 ppm [2]

O=C(OCCCCc1ccc2ccccc2c1)c1ccc2c(c1)B(O)OC2 [Compound 353]
≥ 80%: inhibition at 200 ppm [5] | inhibition at 200 ppm [2]

O=C(OC1CCOCC1)c1ccc2c(c1)B(O)OC2 [Compound 366]
≥ 80%: inhibition at 200 ppm [1] | inhibition at 200 ppm [6] | pest or weed control at 200 ppm [7] | inhibition at 200 ppm [2]

O=C(OCCC(F)(F)F)c1ccc2c(c1)B(O)OC2 [Compound 369]
≥ 80%: inhibition at 200 ppm [1] | inhibition at 200 ppm [4] | inhibition at 200 ppm [6] | inhibition at 200 ppm [3] | inhibition at 200 ppm [5]

COCCOCCOCCOC(=O)c1ccc2c(c1)B(O)OC2 [Compound 371]
≥ 80%: inhibition at 200 ppm [1] | inhibition at 200 ppm [2]

C[Si](C)(C)CCCOC(=O)c1cc2c(cc1F)COB2O [Compound 377]
≥ 80%: inhibition at 200 ppm [1] | inhibition at 200 ppm [4] | inhibition at 200 ppm [6] | inhibition at 200 ppm [5] | inhibition at 200 ppm [2] | inhibition at 200 ppm [8]

O=C(OCCCF)c1cc2c(cc1F)COB2O [Compound 390]
≥ 80%: inhibition at 200 ppm [1] | inhibition at 200 ppm [4] | inhibition at 200 ppm [6] | pest or weed control at 200 ppm [7] | inhibition at 200 ppm [3] | inhibition at 200 ppm [5]

CC(F)COC(=O)c1cc2c(cc1F)COB2O (centres unmarked) [Compound 396]
≥ 80%: inhibition at 200 ppm [1] | inhibition at 200 ppm [4] | inhibition at 200 ppm [6] | pest or weed control at 200 ppm [7] | inhibition at 200 ppm [2]

O=C(OCc1ccco1)c1cc2c(cc1F)COB2O [Compound 398]
≥ 80%: inhibition at 200 ppm [1] | inhibition at 200 ppm [4] | inhibition at 200 ppm [6] | pest or weed control at 200 ppm [7] | inhibition at 200 ppm [2]

O=C(OCc1ccc(C(F)(F)F)nc1)c1cc2c(cc1F)COB2O [Compound 405]
≥ 80%: inhibition at 200 ppm [1] | inhibition at 200 ppm [4] | inhibition at 200 ppm [6] | inhibition at 200 ppm [2]

O=C(OCCCCc1ccc2ccccc2c1)c1cc2c(cc1F)COB2O [Compound 415]
≥ 80%: inhibition at 200 ppm [4] | inhibition at 200 ppm [6] | inhibition at 200 ppm [5] | inhibition at 200 ppm [2]

O=C(OCCF)c1cc2c(cc1F)COB2O [Compound 423]
≥ 80%: inhibition at 200 ppm [1] | inhibition at 200 ppm [4] | inhibition at 200 ppm [6] | pest or weed control at 200 ppm [7] | inhibition at 200 ppm [5] | inhibition at 200 ppm [2] | inhibition at 200 ppm [8]

O=C(OCC(F)F)c1cc2c(cc1F)COB2O [Compound 427]
≥ 80%: inhibition at 200 ppm [1] | inhibition at 200 ppm [4] | inhibition at 200 ppm [6] | inhibition at 200 ppm [3]
